From ChEMBL document CHEMBL1212738, “Phenotypic and genotypic characterization of Enterobacteriaceae with decreased susceptibility to carbapenems: results from large hospital-based surveillance studies in China” (2010)
≈ marks a conversion by molar mass, not a printed value.

Key:
Enterobacter cloacae [1] = experiment: Antimicrobial activity against carbapenem-resistant Enterobacter cloacae SZ92 deficient in IMP-4, TEM-1, CTX-M-14, DHA-1, qnrB10/B4-like, aac(6')-Ib, ompC by CLSI method; assay type: functional
Klebsiella pneumoniae [2] = experiment: Antimicrobial activity against Klebsiella pneumoniae GZ64T expressing IMP-4 by CLSI method; assay type: functional
Klebsiella pneumoniae [3] = experiment: Antimicrobial activity against Klebsiella pneumoniae GZ64 expressing IMP-4, ompK35/36 by CLSI method; assay type: functional
Klebsiella pneumoniae [4] = experiment: Antimicrobial activity against Klebsiella pneumoniae CY1T expressing SHV-11, DHA-1 by CLSI method; assay type: functional
Citrobacter freundii [5] = experiment: Antimicrobial activity against Citrobacter freundii SZ63 expressing IMP-4, qnrS1by CLSI method; assay type: functional
Klebsiella pneumoniae [6] = experiment: Antimicrobial activity against Klebsiella pneumoniae WH97 expressing SHV-33, aac(6')-Ib, ompK35 DE by CLSI method; assay type: functional
Klebsiella pneumoniae [7] = experiment: Antimicrobial activity against carbapenem-resistant Klebsiella pneumoniae PU3 deficient in DHA-1, aac(6')-Ib-cr, ompK35/36 by CLSI method; assay type: functional
Escherichia coli [8] = experiment: Antimicrobial activity against carbapenem-resistant Escherichia coli PU60 deficient in TEM-1, CMY-2, ompC/F by CLSI method; assay type: functional
Escherichia coli [9] = experiment: Antimicrobial activity against Escherichia coli HX74T expressing CTX-M-3 by CLSI method; assay type: functional
Klebsiella pneumoniae [10] = experiment: Antimicrobial activity against carbapenem-resistant Klebsiella pneumoniae FZ49 deficient in IMP-8, TEM-1, SHV-11, CTX-M-14, qnrB2, aac(6')-Ib, ompK35/36 by CLSI method; assay type: functional
Klebsiella pneumoniae [11] = experiment: Antimicrobial activity against Klebsiella pneumoniae ZJ71T expressing KPC-2 by CLSI method; assay type: functional
Klebsiella pneumoniae [12] = experiment: Antimicrobial activity against carbapenem-resistant Klebsiella pneumoniae PU105 deficient TEM-1, SHV-12, CTX-M-14, DHA-1, qnrB10/B4-like, aac(6')-Ib-cr, ompK35/36 by CLSI method; assay type: functional
Escherichia coli [13] = experiment: Antimicrobial activity against Escherichia coli C600 transconjugant WH76T expressing IMP-4, TEM-1, CTX-M-3, qnrS1 by CLSI method
Klebsiella pneumoniae [14] = experiment: Antimicrobial activity against Klebsiella pneumoniae FZ47T expressing IMP-8, TEM-1, CTX-M-14, qnrB2, aac(6')-Ib by CLSI method; assay type: functional
Escherichia coli [15] = experiment: Antimicrobial activity against Escherichia coli ZJ87T expressing KPC-2 by CLSI method; assay type: functional
Klebsiella pneumoniae [16] = experiment: Antimicrobial activity against carbapenem-resistant Klebsiella pneumoniae ZJ71 deficient in KPC-2, TEM-1, SHV-11, CTX-M-14, ompK35 by CLSI method; assay type: functional
Escherichia coli [17] = experiment: Antimicrobial activity against carbapenem-resistant Escherichia coli PU101 deficient in TEM-1, CTX-M-14, CMY-2, ompC by CLSI method; assay type: functional
Escherichia coli [18] = experiment: Antimicrobial activity against carbapenem-resistant Escherichia coli PU96 deficient in TEM-1, CTX-M-14, CMY-2, ompC/F by CLSI method; assay type: functional
Escherichia coli [19] = experiment: Antimicrobial activity against Escherichia coli C600 transconjugant XJ81T expressing TEM-1, SHV-12, aac(6')-Ib by CLSI method
Citrobacter freundii [20] = experiment: Antimicrobial activity against Citrobacter freundii SZ62 expressing IMP-4, TEM-1, CMY-2, qnrS1, aac(6')-Ib-cr by CLSI method; assay type: functional
Escherichia coli [21] = experiment: Antimicrobial activity against Escherichia coli C600 transconjugant SZ62T expressing IMP-4, qnrS1by CLSI method
Klebsiella pneumoniae [22] = experiment: Antimicrobial activity against Klebsiella pneumoniae ZJ99T expressing KPC-2, CTX-M-3, qnrS1 by CLSI method; assay type: functional
Enterobacter cloacae [23] = experiment: Antimicrobial activity against carbapenem-resistant Enterobacter cloacae GX56 deficient in ompC and expressing low levels of ompF DE by CLSI method; assay type: functional
Escherichia coli [24] = experiment: Antimicrobial activity against carbapenem-resistant Escherichia coli PU102 deficient in TEM-1, CTX-M-14, CMY-2, aac(6')-Ib, ompC DEc, ompF by CLSI method; assay type: functional
Klebsiella pneumoniae [25] = experiment: Antimicrobial activity against carbapenem-resistant Klebsiella pneumoniae CY1 deficient in SHV-11, DHA-1, ompK35/36 by CLSI method; assay type: functional
Klebsiella pneumoniae [26] = experiment: Antimicrobial activity against carbapenem-resistant Klebsiella pneumoniae GZ84 deficient in SHV-11, aac(6')-Ib-cr, ompK35 by CLSI method; assay type: functional
Enterobacter cloacae [27] = experiment: Antimicrobial activity against carbapenem-resistant Enterobacter cloacae RJ94 deficient in IMP-4, TEM-1, CTX-M-3, ompC by CLSI method; assay type: functional
Klebsiella pneumoniae [28] = experiment: Antimicrobial activity against carbapenem-resistant Klebsiella pneumoniae ZJ70 deficient in KPC-2, SHV-11, CTX-M-14, ompK35/36 by CLSI method; assay type: functional
Klebsiella pneumoniae [29] = experiment: Antimicrobial activity against carbapenem-resistant Klebsiella pneumoniae FZ47 deficient in IMP-8, TEM-1, SHV-11, CTX-M-14, qnrB2, aac(6')-Ib, ompK35/36 by CLSI method; assay type: functional
Enterobacter cloacae [30] = experiment: Antimicrobial activity against carbapenem-resistant Enterobacter cloacae SZ93 deficient in ompC by CLSI method; assay type: functional
Klebsiella pneumoniae [31] = experiment: Antimicrobial activity against carbapenem-resistant Klebsiella pneumoniae SX67 deficient in SHV-2, CTX-M-14, DHA-1, qnrB6/S1, aac(6')-Ib-cr, ompK35/36 by CLSI method; assay type: functional
Enterobacter cloacae [32] = experiment: Antimicrobial activity against carbapenem-resistant Enterobacter cloacae NJ89 deficient in CTX-M-14, ompC/F by CLSI method; assay type: functional
Escherichia coli [33] = experiment: Antimicrobial activity against Escherichia coli PU60T expressing CMY-2 by CLSI method; assay type: functional
Klebsiella pneumoniae [34] = experiment: Antimicrobial activity against carbapenem-resistant Klebsiella pneumoniae PU104 deficient in TEM-1, SHV-11, CTX-M-15, qnrS1, ompK35/36 by CLSI method; assay type: functional
Klebsiella pneumoniae [35] = experiment: Antimicrobial activity against Klebsiella pneumoniae ZJ99 expressing KPC-2, CTX-M-3, qnrS1, ompK35 DE by CLSI method; assay type: functional
Klebsiella pneumoniae [36] = experiment: Antimicrobial activity against Klebsiella pneumoniae ZJ68T expressing CTX-M-15 by CLSI method; assay type: functional
Klebsiella pneumoniae [37] = experiment: Antimicrobial activity against carbapenem-resistant Klebsiella pneumoniae PU4 deficient in SHV-1, DHA-1, ompK35/36 by CLSI method; assay type: functional
Enterobacter cloacae [38] = experiment: Antimicrobial activity against carbapenem-resistant Enterobacter cloacae NJ88 deficient in CTX-M-14, ompC/F by CLSI method; assay type: functional
Klebsiella pneumoniae [39] = experiment: Antimicrobial activity against Klebsiella pneumoniae WH76 expressing IMP-4, TEM-1, SHV-14, CTX-M-3, qnrS1 by CLSI method; assay type: functional
Escherichia coli [40] = experiment: Antimicrobial activity against Escherichia coli PU101T expressing CMY-2 by CLSI method; assay type: functional
Enterobacter cloacae [41] = experiment: Antimicrobial activity against carbapenem-resistant Enterobacter cloacae NJ90 deficient in CTX-M-14, ompC/F by CLSI method; assay type: functional

Work on CO/N=C(\C(=O)N[C@@H]1C(=O)N2C(C(=O)O)=C(COC(C)=O)CS[C@H]12)c1csc(N)n1 [CEFOTAXIME] yielded an MIC (Enterobacter cloacae [1]) greater than 256 µg/mL, an MIC (Klebsiella pneumoniae [2]) of 128 µg/mL (≈ 281 µM) and an MIC (Klebsiella pneumoniae [3]) of 256 µg/mL (≈ 562 µM). For the same compound, the MIC (Klebsiella pneumoniae [4]) was 4 µg/mL (≈ 8.78 µM), the MIC (Citrobacter freundii [5]) was greater than 256 µg/mL and the MIC (Klebsiella pneumoniae [6]) was 128 µg/mL (≈ 281 µM). For the same compound, the MIC (Klebsiella pneumoniae [7]) was 128 µg/mL (≈ 281 µM), the MIC (Escherichia coli [8]) was 256 µg/mL (≈ 562 µM) and the MIC (Escherichia coli [9]) was greater than 256 µg/mL. It also gave an MIC (Klebsiella pneumoniae [10]) greater than 256 µg/mL, an MIC (Klebsiella pneumoniae [11]) of 16 µg/mL (≈ 35.1 µM) and an MIC (Klebsiella pneumoniae [12]) greater than 256 µg/mL. For the same compound, the MIC (Escherichia coli [13]) was 256 µg/mL (≈ 562 µM), the MIC (Klebsiella pneumoniae [14]) was 128 µg/mL (≈ 281 µM) and the MIC (Escherichia coli [15]) was 32 µg/mL (≈ 70.3 µM). For the same compound, the MIC (Klebsiella pneumoniae [16]) was 256 µg/mL (≈ 562 µM), the MIC (Escherichia coli [17]) was greater than 256 µg/mL and the MIC (Escherichia coli [18]) was greater than 256 µg/mL. The MIC (Escherichia coli [19]) was 4 µg/mL (≈ 8.78 µM), the MIC (Citrobacter freundii [20]) was 256 µg/mL (≈ 562 µM) and the MIC (Escherichia coli [21]) was 128 µg/mL (≈ 281 µM). The MIC (Klebsiella pneumoniae [22]) was 256 µg/mL (≈ 562 µM), the MIC (Enterobacter cloacae [23]) was greater than 256 µg/mL and the MIC (Escherichia coli [24]) was greater than 256 µg/mL. The MIC (Klebsiella pneumoniae [25]) was 128 µg/mL (≈ 281 µM), the MIC (Klebsiella pneumoniae [26]) was 256 µg/mL (≈ 562 µM) and the MIC (Enterobacter cloacae [27]) was greater than 256 µg/mL. The MIC (Klebsiella pneumoniae [28]) was greater than 256 µg/mL, the MIC (Klebsiella pneumoniae [29]) was 256 µg/mL (≈ 562 µM) and the MIC (Enterobacter cloacae [30]) was 1 µg/mL (≈ 2.2 µM). It also gave an MIC (Klebsiella pneumoniae [31]) greater than 256 µg/mL, an MIC (Enterobacter cloacae [32]) greater than 256 µg/mL and an MIC (Escherichia coli [33]) of 16 µg/mL (≈ 35.1 µM). For the same compound, the MIC (Klebsiella pneumoniae [34]) was greater than 256 µg/mL, the MIC (Klebsiella pneumoniae [35]) was 128 µg/mL (≈ 281 µM) and the MIC (Klebsiella pneumoniae [36]) was greater than 256 µg/mL. The MIC (Klebsiella pneumoniae [37]) was 16 µg/mL (≈ 35.1 µM), the MIC (Enterobacter cloacae [38]) was greater than 256 µg/mL and the MIC (Klebsiella pneumoniae [39]) was 128 µg/mL (≈ 281 µM). For the same compound, the MIC (Escherichia coli [40]) was 128 µg/mL (≈ 281 µM) and the MIC (Enterobacter cloacae [41]) was greater than 256 µg/mL.
